Test results reported in patent US8119681B2, “2-[1-phenyl-5-hydroxy or methoxy-4alpha-methyl-hexahydrocyclopenta [ƒ]indazole-5-YL]ethyl phenyl derivatives as glucocorticoid receptor ligands” (Merck Sharp & Dohme Corp., priority 2006, dated 2012).
Where two headings read alike, the source gives them in different places.

Molecular target: T1, human GR (Homo sapiens, UniProt P04150)
T1 sequence (P04150 1-777): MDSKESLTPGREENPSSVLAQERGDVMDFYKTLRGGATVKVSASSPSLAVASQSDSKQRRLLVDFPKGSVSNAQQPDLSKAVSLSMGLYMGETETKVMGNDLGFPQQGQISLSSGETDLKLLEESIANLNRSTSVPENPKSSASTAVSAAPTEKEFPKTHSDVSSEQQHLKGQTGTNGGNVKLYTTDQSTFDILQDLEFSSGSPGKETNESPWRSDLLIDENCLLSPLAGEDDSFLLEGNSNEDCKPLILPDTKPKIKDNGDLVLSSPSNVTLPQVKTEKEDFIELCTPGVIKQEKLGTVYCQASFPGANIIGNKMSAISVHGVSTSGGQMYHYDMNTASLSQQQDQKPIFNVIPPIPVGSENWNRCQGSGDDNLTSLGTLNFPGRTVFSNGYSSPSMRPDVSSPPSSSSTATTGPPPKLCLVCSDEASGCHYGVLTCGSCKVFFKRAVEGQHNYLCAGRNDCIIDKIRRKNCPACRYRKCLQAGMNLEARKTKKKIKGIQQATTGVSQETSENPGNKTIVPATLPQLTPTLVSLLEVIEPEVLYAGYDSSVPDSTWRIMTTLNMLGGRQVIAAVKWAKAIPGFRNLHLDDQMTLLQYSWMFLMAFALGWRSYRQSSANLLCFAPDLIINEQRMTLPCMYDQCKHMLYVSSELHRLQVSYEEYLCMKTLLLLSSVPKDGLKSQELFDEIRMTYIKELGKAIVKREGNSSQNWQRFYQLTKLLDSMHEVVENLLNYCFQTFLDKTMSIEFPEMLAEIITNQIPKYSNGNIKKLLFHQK
Assay: Transrepression Assay (GITAR), TNFα-β-lactamase reporter gene in U937 cells
Format: cell-based
Parameters: U937 cells contain an endogenous glucocorticoid receptor (GR); endogenous in cells; host or cells: U937 cells stably transfected with the TNF-α promoter/β-lactamase reporter only
How it was run: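 Reporter readout used CCF2-AM loading for 70–90 min at room temperature after overnight (~18 h, 37 °C) PMA (5 ng/ml final) and LPS (100 ng/ml final) stimulation of compound-treated (30–45 min) TNFα-β-lactamase U937 cells expressing native GR. Activity was normalised to 100 nM dexamethasone repression.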

[1] = U-937, 100 nM dexamethasone = 100% activity, read-out: maximal activity in the transrepression assay

Compound | Emax [1] [%] | Emax (U-937, read-out: maximal activity in the transrepression assay) [%]
C[C@]12Cc3cnn(-c4ccc(F)cc4)c3C=C1CC[C@@]2(O)CCc1ccccc1C(O)(C(N)=O)C1CC1 (stereo partly drawn) [Example 200, 2-cyclopropyl-2-(2-{2-[(4αS,5R)-1-(4-fluorophenyl)-5-hydroxy-4α-methyl-1,4,4α,5,6,7-hexahydrocyclopenta[f]indazol-5-yl]ethyl}phenyl)-2-hydroxyacetamide] | – | 5 to 100
C[C@]12Cc3cnn(-c4ccc(F)cc4)c3C=C1CC[C@@]2(O)CCc1cccc(F)c1C(=O)N1CCCC(F)(F)C1 [Example 76, (4αS,5R)-5-(2-{2-[(3,3-difluoropiperidin-1-yl)carbonyl]-3-fluorophenyl}ethyl)-1-(4-fluorophenyl)-4α-methyl-1,4,4α,5,6,7-hexahydrocyclopenta[f]indazol-5-ol] | 5 to 100 | –
C[C@]12Cc3cnn(-c4ccc(F)c(F)c4)c3C=C1CC[C@@]2(O)CCc1ccccc1S(N)(=O)=O [Example 142, 2-{2-[(4αS,5R)-1-(3,4-difluorophenyl)-5-hydroxy-4α-methyl-1,4,4α,5,6,7-hexahydrocyclopenta[f]indazol-5-yl]ethyl}benzenesulfonamide] | 5 to 100 | –
CCNC(=O)C(C)(C)NC(=O)c1ccccc1CC[C@]1(O)CCC2=Cc3c(cnn3-c3ccc(F)cc3)C[C@@]21C [Example 71, N-[2-(ethylamino)-1,1-dimethyl-2-oxoethyl]-2-{2-[(4αS,5R)-1-(4-fluorophenyl)-5-hydroxy-4α-methyl-1,4,4α,5,6,7-hexahydrocyclopenta[f]indazol-5-yl]ethyl}benzamide] | 5 to 100 | –
C[C@]12Cc3cnn(-c4ccc(F)cc4)c3C=C1CC[C@@]2(O)CCc1ccccc1CNS(=O)(=O)CC(F)(F)F [Example 90, 2,2,2-trifluoro-N-(2-{2-[(4αS,5R)-1-(4-fluorophenyl)-5-hydroxy-4α-methyl-1,4,4α,5,6,7-hexahydrocyclopenta[f]indazol-5-yl]ethyl}benzyl)ethanesulfonamide] | 5 to 100 | –

The next lines start with results.

Emax [1] [%] | Compound | Emax (U-937, read-out: maximal activity in the transrepression assay) [%]
5 to 100 | CCOC(=O)Oc1ccccc1CC[C@]1(O)CCC2=Cc3c(cnn3-c3ccc(F)cc3)C[C@@]21C [Example 17, Ethyl-(2-(2-[(4αS,5R)-1-(4-fluorophenyl)-5-hydroxy-4α-methyl-1,4,4α,5,6,7-hexahydrocyclopenta(f)indazol-5-yl]ethyl)phenyl)carbonate] | –
5 to 100 | C[C@]12Cc3cnn(-c4ccc(F)cc4)c3C=C1CC[C@@]2(O)CCc1ccccc1N1CCCC1=O [Example 111, 1-(2-{2-[(4αS,5R)-1-(4-fluorophenyl)-5-hydroxy-4α-methyl-1,4,4α,5,6,7-hexahydrocyclopenta[f]indazol-5-yl]ethyl}phenyl)pyrrolidin-2-one] | –
